Patent US20260317344A1, “EGFR INHIBITORS FOR TREATING DISEASE” (BLOSSOMHILL THERAPEUTICS, INC., priority 2023, published 2026)

Tests used:
EGFR (D746-750/C797S) = EGFR (D746-750/C797S) (Homo sapiens, UniProt P00533, C797S/DEL746-750); assay: HotSpot radiometric kinase assay, inhibition of EGFR 746-750/C797S mutant; format: biochemical; conditions: 33P ATP, room temperature, 120 m
Procedure, shortened: (§1)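 Radiometric filter-binding format: ATP plus 33P-ATP ([…]) was added about 20 min after compound to kinase and substrate in HEPES pH 7.5 buffer with Mg2+, EGTA, Brij35, BSA, vanadate, DTT and 1% DMSO. After 120 min at room temperature, reactions were spotted on P81 paper and washed in phosphoric acid; IC50 values fitted.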

[1] = tested on: BaF3 cells with engineered EGFR d746-750/T790M; assay: 3-Day CellTiter Glo (CTG) cell proliferation assay, BaF3 EGFR d746-750/T790M; format: cell-based; conditions: Mus musculus; BaF3 EGFR d746-750/T790M cells, 3-day CTG proliferation, 72 hours
Procedure, shortened: (§2)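 Growth inhibition in transgene-bearing BaF3 lines was scored after three days of compound treatment by CellTiter-Glo 2.0 ATP luminescence, yielding IC50 values.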

EGFR (D746-750) = EGFR (D746-750) (Homo sapiens, UniProt P00533, DEL746-750); assay: HotSpot radiometric kinase assay, inhibition of EGFR 746-750 mutant; format: biochemical; conditions: 33P ATP, room temperature, 120 m
Procedure, shortened: as §1

[2] = tested on: BaF3 cells with engineered EGFR L858R/T790M/C797S; assay: 3-Day CellTiter Glo (CTG) cell proliferation assay, BaF3 EGFR L858R/T790M/C797S; format: cell-based; conditions: Mus musculus, 3-day CTG proliferation, 72 hours
Procedure, shortened: as §2

EGFR (L858R/T790M/C797S) = EGFR (L858R/T790M/C797S) (Homo sapiens, UniProt P00533, C797S/L858R/T790M); assay: HotSpot radiometric kinase assay, inhibition of EGFR L858R/T790M/C797S mutant; format: biochemical; conditions: 33P ATP, room temperature, 120 m
Procedure, shortened: as §1

[3] = tested on: BaF3 cells with engineered EGFR L858R/C797S; assay: 3-Day CellTiter Glo (CTG) cell proliferation assay, BaF3 EGFR L858R/C797S; format: cell-based; conditions: Mus musculus, 3-day CTG proliferation, 72 hours
Procedure, shortened: as §2

EGFR (D770_N771insNPG) = EGFR (D770_N771insNPG) (Homo sapiens, UniProt P00533, INS770NPG); assay: HotSpot radiometric kinase assay, inhibition of EGFR (D770_N771insNPG) mutant; format: biochemical; conditions: 33P ATP, room temperature, 120 m
Procedure, shortened: as §1

[4] = target: T1, pEGFR, PC-9 cells (d746-750 EGFR) (Homo sapiens, UniProt P00533, DEL746-750); assay: Cellular EGFR phosphorylation assay (LANCE Ultra TR-FRET) in PC-9 cells; format: cell-based; conditions: 4 hours at 37° C., read-out: PC-9 pEGFR IC50
T1 construct: pEGFR (Tyr1068) TR-FRET
Procedure, shortened: (§3)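 4 h compound treatment at 37 °C, 9-point 3-fold titration. EGF (40 ng/mL, final 10 min) in A431 only. Tyr1068 phosphorylation measured by TR-FRET and IC50 fitted.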

[5] = target: T2, pEGFR, NCI-H1975 cells (L858R/T790M EGFR) (Homo sapiens, UniProt P00533, L858R/T790M); assay: Cellular EGFR phosphorylation assay (LANCE Ultra TR-FRET) in NCI-H1975 cells; format: cell-based; conditions: 4 hours at 37° C., read-out: H1975 pEGFR IC50
T2 construct: pEGFR (Tyr1068) TR-FRET
Procedure, shortened: as §3

[6] = target: T3, pEGFR, A431 cells (wildtype EGFR) (Homo sapiens, UniProt P00533); assay: Cellular EGFR phosphorylation assay (LANCE Ultra TR-FRET) in A431 cells; format: cell-based; conditions: 4 hours at 37° C., 40 ng/mL EGF for the final 10 minutes, read-out: A431 pEGFR IC50
T3 construct: pEGFR (Tyr1068) TR-FRET
Procedure, shortened: as §3

PC-9 cells = assay: 5-Day CellTiter Glo (CTG) cell proliferation assay, PC-9; format: cell-based; conditions: Homo sapiens; PC-9 cells (d746-750 EGFR), 5-day CTG proliferation, 120 hours; read-out: PC-9 IC50
Procedure, shortened: (§4)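 Proliferation of EGFR-driven NSCLC cells was scored as CellTiter-Glo 2.0 luminescence after a 5-day (120 h) incubation with compounds in 9 doses. IC50 values came from the dose-response curves.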

NCI-H1975 cells = assay: 5-Day CellTiter Glo (CTG) cell proliferation assay, NCI-H1975; format: cell-based; conditions: Homo sapiens; NCI-H1975 cells (L858R/T790M EGFR), 5-day CTG proliferation, 120 hours; read-out: H1975 IC50
Procedure, shortened: as §4

HCC827 cells = assay: 5-Day CellTiter Glo (CTG) cell proliferation assay, HCC827; format: cell-based; conditions: Homo sapiens; HCC827 cells (d746-750 EGFR), 5-day CTG proliferation, 120 hours; read-out: HCC827 IC50
Procedure, shortened: as §4

Sequence of EGFR (D746-750/C797S) (P00533 with tags, fused parts or gaps DEL746-750/C797S): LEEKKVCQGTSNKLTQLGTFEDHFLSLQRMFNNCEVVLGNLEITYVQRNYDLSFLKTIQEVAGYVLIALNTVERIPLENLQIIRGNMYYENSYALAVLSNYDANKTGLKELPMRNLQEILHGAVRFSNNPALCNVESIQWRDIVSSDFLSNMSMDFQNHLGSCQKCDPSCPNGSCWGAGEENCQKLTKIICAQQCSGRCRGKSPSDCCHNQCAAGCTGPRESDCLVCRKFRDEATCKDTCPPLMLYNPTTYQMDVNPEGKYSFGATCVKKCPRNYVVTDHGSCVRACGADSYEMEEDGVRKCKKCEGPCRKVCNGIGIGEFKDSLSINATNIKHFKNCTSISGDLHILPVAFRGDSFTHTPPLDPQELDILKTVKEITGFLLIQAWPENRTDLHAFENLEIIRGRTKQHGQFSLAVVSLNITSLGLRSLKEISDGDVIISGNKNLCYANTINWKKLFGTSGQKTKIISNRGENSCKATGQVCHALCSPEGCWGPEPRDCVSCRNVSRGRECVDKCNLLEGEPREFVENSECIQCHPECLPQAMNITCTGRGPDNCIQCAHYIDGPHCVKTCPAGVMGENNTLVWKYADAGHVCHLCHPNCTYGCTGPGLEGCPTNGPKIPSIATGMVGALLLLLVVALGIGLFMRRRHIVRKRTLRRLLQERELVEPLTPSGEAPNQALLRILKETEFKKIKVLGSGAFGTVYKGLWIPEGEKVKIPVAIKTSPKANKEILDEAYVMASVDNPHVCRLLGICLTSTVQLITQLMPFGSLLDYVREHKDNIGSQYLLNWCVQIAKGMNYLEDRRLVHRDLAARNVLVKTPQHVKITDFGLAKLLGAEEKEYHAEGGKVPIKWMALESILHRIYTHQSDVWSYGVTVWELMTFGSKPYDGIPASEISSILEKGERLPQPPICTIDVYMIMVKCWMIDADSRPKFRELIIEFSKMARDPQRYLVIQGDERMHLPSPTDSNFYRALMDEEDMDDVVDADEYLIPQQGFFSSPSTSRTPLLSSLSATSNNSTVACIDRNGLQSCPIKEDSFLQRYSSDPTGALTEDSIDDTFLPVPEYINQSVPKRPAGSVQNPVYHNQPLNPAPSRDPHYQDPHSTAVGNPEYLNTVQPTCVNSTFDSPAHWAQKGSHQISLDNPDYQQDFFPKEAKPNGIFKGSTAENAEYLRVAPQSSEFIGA
Sequence of EGFR (D746-750) (P00533 with tags, fused parts or gaps DEL746-750): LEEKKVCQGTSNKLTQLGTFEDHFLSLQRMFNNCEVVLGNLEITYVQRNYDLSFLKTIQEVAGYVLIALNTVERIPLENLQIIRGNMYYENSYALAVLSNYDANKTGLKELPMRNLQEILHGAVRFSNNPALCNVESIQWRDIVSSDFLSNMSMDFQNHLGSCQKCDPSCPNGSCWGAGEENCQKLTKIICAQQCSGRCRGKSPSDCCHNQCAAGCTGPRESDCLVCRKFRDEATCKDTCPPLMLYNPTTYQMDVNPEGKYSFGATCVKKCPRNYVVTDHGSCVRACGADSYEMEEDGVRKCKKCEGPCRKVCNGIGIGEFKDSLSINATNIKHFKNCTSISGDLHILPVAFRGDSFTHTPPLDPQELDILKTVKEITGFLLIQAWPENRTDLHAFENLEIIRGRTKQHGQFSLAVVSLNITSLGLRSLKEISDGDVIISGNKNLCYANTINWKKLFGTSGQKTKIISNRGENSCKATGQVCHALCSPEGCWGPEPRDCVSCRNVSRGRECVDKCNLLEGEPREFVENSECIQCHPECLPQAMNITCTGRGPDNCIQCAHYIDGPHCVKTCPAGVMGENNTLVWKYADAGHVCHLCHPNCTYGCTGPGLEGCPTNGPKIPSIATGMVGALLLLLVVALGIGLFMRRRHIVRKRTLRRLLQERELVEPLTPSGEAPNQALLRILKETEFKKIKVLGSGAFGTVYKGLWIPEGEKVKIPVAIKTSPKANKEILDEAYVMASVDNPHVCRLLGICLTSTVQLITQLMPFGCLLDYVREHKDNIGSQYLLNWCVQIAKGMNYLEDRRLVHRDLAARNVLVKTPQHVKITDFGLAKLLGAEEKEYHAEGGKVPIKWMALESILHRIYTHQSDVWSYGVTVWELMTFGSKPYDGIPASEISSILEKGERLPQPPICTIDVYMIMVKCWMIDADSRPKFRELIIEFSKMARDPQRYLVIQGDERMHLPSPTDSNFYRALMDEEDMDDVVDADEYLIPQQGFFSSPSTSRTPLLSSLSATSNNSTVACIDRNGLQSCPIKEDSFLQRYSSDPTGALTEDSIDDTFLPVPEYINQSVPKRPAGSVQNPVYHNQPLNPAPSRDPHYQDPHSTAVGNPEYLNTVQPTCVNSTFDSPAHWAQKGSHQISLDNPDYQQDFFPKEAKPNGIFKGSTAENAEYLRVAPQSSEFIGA
T1 sequence (P00533 with tags, fused parts or gaps DEL746-750): as above
T3 sequence (P00533 25-1210): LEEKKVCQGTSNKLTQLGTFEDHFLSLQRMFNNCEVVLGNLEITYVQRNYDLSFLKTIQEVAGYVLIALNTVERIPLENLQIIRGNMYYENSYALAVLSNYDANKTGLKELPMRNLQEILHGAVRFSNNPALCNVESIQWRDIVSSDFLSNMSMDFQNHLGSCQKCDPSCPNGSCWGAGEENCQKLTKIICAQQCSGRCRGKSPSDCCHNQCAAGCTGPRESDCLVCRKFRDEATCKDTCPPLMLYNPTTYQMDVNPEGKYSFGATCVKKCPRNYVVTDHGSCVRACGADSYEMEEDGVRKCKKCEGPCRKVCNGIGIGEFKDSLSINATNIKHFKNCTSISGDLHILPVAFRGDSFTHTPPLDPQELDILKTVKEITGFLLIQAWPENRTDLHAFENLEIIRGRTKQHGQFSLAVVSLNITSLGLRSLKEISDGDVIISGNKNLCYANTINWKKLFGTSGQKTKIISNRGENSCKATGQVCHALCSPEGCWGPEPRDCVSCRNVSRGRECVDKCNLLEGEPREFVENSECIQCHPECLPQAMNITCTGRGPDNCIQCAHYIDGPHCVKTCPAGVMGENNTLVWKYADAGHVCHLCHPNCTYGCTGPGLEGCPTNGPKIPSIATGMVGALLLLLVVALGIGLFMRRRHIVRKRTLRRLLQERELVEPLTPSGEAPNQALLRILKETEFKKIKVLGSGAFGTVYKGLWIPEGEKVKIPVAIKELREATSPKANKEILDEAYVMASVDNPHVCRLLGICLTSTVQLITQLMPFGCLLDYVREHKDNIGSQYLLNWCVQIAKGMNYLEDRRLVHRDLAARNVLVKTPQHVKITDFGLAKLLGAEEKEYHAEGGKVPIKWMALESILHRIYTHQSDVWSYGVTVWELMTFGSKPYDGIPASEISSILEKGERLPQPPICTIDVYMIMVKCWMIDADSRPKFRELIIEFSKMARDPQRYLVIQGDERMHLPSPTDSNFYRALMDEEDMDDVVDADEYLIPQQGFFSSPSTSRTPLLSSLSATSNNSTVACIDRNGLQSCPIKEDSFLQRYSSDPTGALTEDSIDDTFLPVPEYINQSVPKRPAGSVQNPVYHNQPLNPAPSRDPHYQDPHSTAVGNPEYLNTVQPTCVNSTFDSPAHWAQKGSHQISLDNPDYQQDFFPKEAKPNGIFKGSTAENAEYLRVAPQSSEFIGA

Row | Compound | IC50 (EGFR (D746-750/C797S)) | IC50 [1] | IC50 (EGFR (D746-750)) | IC50 [2] | IC50 (EGFR (L858R/T790M/C797S)) | IC50 [3] | IC50 (EGFR (D770_N771insNPG)) | IC50 [4] | IC50 [5] | IC50 [6] | IC50 (PC-9 cells) | IC50 (NCI-H1975 cells) | IC50 (HCC827 cells)
1 | Cc1nn(CCO)c2c1/C=C/c1n[nH]c3cnc(cc13)-c1c(C)nn(C)c1O[C@@H](C)CN(C)C2 [Ex. 41, 2-[(10S,17E)-6,8,10,12,16-pentamethyl-2,8,10,11,12,13-hexahydro-14H-5,3-(azenometheno)tripyrazolo[3,4-f:3′,4′-j:4″,3″-n][1,4]oxazacyclopentadecin-14-yl]ethan-1-ol] | 0.23 nM | 13.8 nM | 0.08 nM | 3.74 nM | 0.23 nM | 0.16 nM | 0.08 nM | – | – | – | – | – | –
2 | Cc1nn(C)c2c1/C=C/c1n[nH]c3c(C)nc(cc13)-c1c(C)nn(C)c1O[C@@H](C)CN(C(C)C)C2 [Ex. 106, (10S,17E)-6,8,10,14,16,20-hexamethyl-12-(propan-2-yl)-2,10,11,12,13,14-hexahydro-8H-5,3-(azenometheno)tripyrazolo[3,4-f:3′,4′-j:4″,3″-n][1,4]oxazacyclopentadecine] | – | 4.75 nM | – | 3.41 nM | – | 1.37 nM | – | 9 nM | 3.03 nM | 10.2 nM | 14.6 nM | 7.92 nM | 2.18 nM
3 | CCOc1nn(C[C@H](C)O)c2c1/C=C/c1n[nH]c3cnc(cc13)-c1c(C)nn(C)c1O[C@@H](C)CN(C1CC1)C2 [Ex. 107, (2S)-1-[(10S,17E)-12-cyclopropyl-16-ethoxy-6,8,10-trimethyl-2,8,10,11,12,13-hexahydro-14H-5,3-(azenometheno)tripyrazolo[3,4-f:3′,4′-j:4″,3″-n][1,4]oxazacyclopentadecin-14-yl]propan-2-ol] | – | 4 nM | – | 3.55 nM | – | 0.49 nM | – | 4.41 nM | 7.07 nM | 5.13 nM | 10.6 nM | 55.2 nM | 2.12 nM
4 | Cc1nn(CCO)c2c1/C=C/c1n[nH]c3c(C)nc(cc13)-c1c(C)nn(C)c1O[C@@H](C)CN(C(C)C)C2 [Ex. 109, 2-[(10S,17E)-6,8,10,16,20-pentamethyl-12-(propan-2-yl)-2,8,10,11,12,13-hexahydro-14H-5,3-(azenometheno)tripyrazolo[3,4-f3′,4′-j:4″,3″-n][1,4]oxazacyclopentadecin-14-yl]ethan-1-ol] | – | 1.17 nM | – | 1.17 nM | – | 0.24 nM | – | 2.91 nM | 1.79 nM | 3.52 nM | 5.53 nM | 2.65 nM | 0.9 nM
5 | CCOc1nn([C@@H](C)CO)c2c1/C=C/c1n[nH]c3cnc(cc13)-c1c(C)nn(C)c1OC[C@@H](C)N(C1CC1)C2 [Ex. 111, (2S)-2-[(11R,17E)-12-cyclopropyl-16-ethoxy-6,8,11-trimethyl-2,8,10,11,12,13-hexahydro-14H-5,3-(azenometheno)tripyrazolo[3,4-f:3′,4′-j:4″,3″-n][1,4]oxazacyclopentadecin-14-yl]propan-1-ol] | – | 0.78 nM | – | 1.11 nM | – | 0.11 nM | – | 1.06 nM | 2.08 nM | 1.46 nM | 1.52 nM | 3.12 nM | 0.43 nM
6 | CCOc1nn(CCO)c2c1/C=C/c1n[nH]c3cnc(cc13)-c1c(C)nn(C)c1O[C@@H](C)CN(C1CC1)C2 [Ex. 113, 2-[(10S,17E)-12-cyclopropyl-16-ethoxy-6,8,10-trimethyl-2,8,10,11,12,13-hexahydro-14H-5,3-(azenometheno)tripyrazolo[3,4-f:3′,4′-j:4″,3″-n][1,4]oxazacyclopentadecin-14-yl]ethan-1-ol] | – | 1.18 nM | – | 0.91 nM | – | 0.11 nM | – | 1.98 nM | 1.58 nM | 11.1 nM | 0.68 nM | 1.4 nM | 0.45 nM
7 | CCOc1nn(CCO)c2c1/C=C/c1n[nH]c3cnc(cc13)-c1c(C)nn(C)c1OC[C@@H](C)N(C1CC1)C2 [Ex. 114, 2-[(11R,17E)-12-cyclopropyl-16-ethoxy-6,8,11-trimethyl-2,8,10,11,12,13-hexahydro-14H-5,3-(azenometheno)tripyrazolo[3,4-f:3′,4′-j:4″,3″-n][1,4]oxazacyclopentadecin-14-yl]ethan-1-ol] | – | 3.72 nM | – | 1.84 nM | – | 0.42 nM | – | 3.56 nM | 5.67 nM | 22.2 nM | 4.87 nM | 27.1 nM | 1.66 nM
8 | CCOc1nn([C@@H](C)CO)c2c1/C=C/c1n[nH]c3c(C)nc(cc13)-c1c(C)nn(C)c1O[C@@H](C)[C@H]1CCCN1C2 [Ex. 179, (2S)-2-[(8aR,9S,19E)-1-ethoxy-9,11,13,21-tetramethyl-7,8,8a,9,11,17-hexahydro-6H-14,16-(azenometheno)tripyrazolo[3,4-f:3′,4′-j:4″,3″-n]pyrrolo[2,1-c][1,4]oxazacyclopentadecin-3(4H)-yl]propan-1-ol] | – | 0.88 nM | – | 1.47 nM | – | 0.1 nM | – | 0.69 nM | 1.38 nM | 8.64 nM | 0.78 nM | 1.41 nM | 0.23 nM

Now from value to compound:

Row | IC50 (EGFR (D746-750/C797S)) | IC50 [1] | IC50 (EGFR (D746-750)) | IC50 [2] | IC50 (EGFR (L858R/T790M/C797S)) | IC50 [3] | IC50 (EGFR (D770_N771insNPG)) | IC50 [4] | IC50 [5] | IC50 [6] | IC50 (PC-9 cells) | IC50 (NCI-H1975 cells) | IC50 (HCC827 cells) | Compound
9 | 0.29 nM | 2.13 nM | 0.1 nM | 1.97 nM | 0.13 nM | 0.47 nM | 0.14 nM | – | – | – | – | – | – | CCN1Cc2c(c(OCC#N)nn2CCO)/C=C/c2n[nH]c3cnc(cc23)-c2c(C)nn(C)c2O[C@H](C)C1 [Ex. 36, {[(10R,17E)-12-ethyl-14-(2-hydroxyethyl)-6,8,10-trimethyl-2,10,11,12,13,14-hexahydro-8H-5,3-(azenometheno)tripyrazolo[3,4-f:3′,4′-j:4″,3″-n][1,4]oxazacyclopentadecin-16-yl]oxy}acetonitrile]
10 | 0.97 nM | 3.34 nM | 0.35 nM | 0.92 nM | 0.45 nM | 0.28 nM | 1.63 nM | 11.4 nM | 1.6 nM | 14.7 nM | – | – | – | Cc1nc2cc3c(n[nH]c13)/C=C/c1c(OC(C)C)nn(CCO)c1CN(C)C[C@H](C)Oc1c-2cnn1C [Ex. 40, 2-[(10S,17E)-8,10,12,20-tetramethyl-16-[(propan-2-yl)oxy]-2,8,10,11,12,13-hexahydro-14H-5,3-(azenometheno)tripyrazolo[3,4-f:3′,4′-j:4″,3″-n][1,4]oxazacyclopentadecin-14-yl]ethan-1-ol]
11 | – | 0.88 nM | – | 0.97 nM | – | 0.07 nM | – | 1.01 nM | 1.38 nM | 8.86 nM | 1.43 nM | 2.6 nM | 0.39 nM | CCOc1nn(CCO)c2c1/C=C/c1n[nH]c3c(C)nc(cc13)-c1c(C)nn(C)c1O[C@@H](C)[C@H]1CCCN1C2 [Ex. 177, 2-[(8aR,9S,19E)-1-ethoxy-9,11,13,21-tetramethyl-7,8,8a,9,11,17-hexahydro-6H-14,16-(azenometheno)tripyrazolo[3,4-f:3′,4′-j:4″,3″-n]pyrrolo[2,1-c][1,4]oxazacyclopentadecin-3(4H)-yl]ethan-1-ol]
12 | – | 0.67 nM | – | 0.59 nM | – | 0.06 nM | – | 0.81 nM | 1.29 nM | 12.5 nM | 1.02 nM | 0.93 nM | 0.39 nM | CCOc1nn(CCO)c2c1/C=C/c1n[nH]c3c(C)nc(cc13)-c1c(C)nn(C)c1O[C@H](C)[C@H]1CCCN1C2 [Ex. 178]
